A word on the IC50: it is the concentration at which inhibition is half-maximal.

One assay addresses T1, bovine erythrocyte GPx (Bos taurus, UniProt P00435).
T1 construct: 180 μL of a bovine erythrocyte GPx1 solution (0.125 U/mL); purchased Sigma Aldrich (Taufkirchen, Germany); host or cells: bovine erythrocytes
T1 sequence (P00435 1-205): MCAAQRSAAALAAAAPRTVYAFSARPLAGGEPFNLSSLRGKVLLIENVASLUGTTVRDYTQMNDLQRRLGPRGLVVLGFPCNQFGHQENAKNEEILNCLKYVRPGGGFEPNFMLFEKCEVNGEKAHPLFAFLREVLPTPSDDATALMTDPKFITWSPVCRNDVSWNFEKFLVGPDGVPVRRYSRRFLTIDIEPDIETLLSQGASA
Kind of assay: GPx enzyme activity assay (TBHP/GSH, GR/NADPH coupled). Type of assay: biochemical. The method, then: The ability of pentathiepins to inhibit the bovine erythrocyte GPx activity was assayed for by an established enzyme method, which is based on the GPx‐dependent reduction of tert‐butyl hydroperoxide (TBHP) by GSH, leading to the formation of GSSG, which is coupled to the reduction of GSSG back to GSH by glutathione reductase (GR) and the oxidation of NADPH to NADP^+[10] (Figure 1). Inhibition potencies of the compounds were ranked by their IC50 values; that is, concentration of the inhibitor at the inflection point in the sigmoidal log dose‐inhibition curve (Figure 4A), and are summarized for the pentathiepins and mercaptosuccinic acid (MSA) in Table 1.
GPx enzyme activity assay: To evaluate if the various compounds could inhibit GPx1, an enzymatic assay monitoring the activity of the bovine erythrocyte GPx was used as described previously.33 Bovine erythrocyte GPx is highly homologous to the human GPx1 (homology of 87 %)34 but much more affordable. In this assay, GPx reduces tert‐butylhydroperoxide (TBHP) followed by oxidation of glutathione (GSH) to the disulfide (GSSG), which in turn is regenerated to GSH by glutathione reductase (GR) with the consumption of NADPH. To each well of a UV‐transparent 96‐well plate were added 180 μL of a bovine erythrocyte GPx1 solution (0.125 U/mL) and 30 μL of prospective inhibitor in different concentrations diluted in DMF and incubated under shaking for 15 min at room temperature. Then 30 μL of stock solutions of GSH (2.5 mM) and baker's yeast GR plus NADPH (2 U/mL; 2.0 mM) were added. All stock solutions were prepared in potassium phosphate buffer (50 mM, pH 7.4, EDTA 1.1 mM, Triton‐X 0.01 %). The reaction was started by addition of TBHP solution (5 mM), giving final concentrations of 0.075 U/mL bovine erythrocyte GPx, 0.2 U/mL GR, 0.25 mM GSH, 0.2 mM NADPH and prospective inhibitor concentrations between 0.2–100 μM. The reaction was followed by the rate of decreasing absorption of the NADPH at λ=340 nm, measured every 15 s for ca. 20 min. The GPx activity related to untreated control was imported into the GraphPad Prism 6.0 software and the IC50 values were calculated by estimating the inflection point of the sigmoidal log concentration‐activity curves.

For the next assay, the system named is HL-60 cells. In words: Western blot analysis of PARP cleavage. As to conditions: multiple IC50 concentrations, 6 h. Type of assay: cell-based, human. As for the experimental part: (§1) Another method for detecting caspase dependent apoptosis is to measure the cleavage of the enzyme poly‐(ADP‐ribose)‐polymerase (PARP) by western blotting. After an apoptotic stimulus, caspases, e. g. caspase‐3 and caspase‐7, cleave PARP, resulting in a loss of its function to mediate DNA‐repair processes. Cells were incubated with multiple IC50 concentrations of 4 for 6 and 24 h. […] Thus, pentathiepin 4 appears to induce the caspase dependent induction of apoptosis.
(§2) Western blot analysis of PARP: For western blot analysis the Biorad system with “Mini‐Protean® TGX Stain‐Fee™ Gels” and “Trans‐Blot® Turbo™ Transfer Pack Mini” PVDF‐membranes were used (Biorad, Germany). Protein lysates for analysis were prepared by seeding out 10^6 cells into T25 flasks and incubated with 4 in multiple concentrations of the viability IC50 for 6 and 24 h. […] Lysates were centrifuged at 18 000 g for 10 min at 4 °C and protein content was determined by the Bradford method against bovine serum albumin (BSA) as standard. […] Protein bands were detected with Clarity™ Western ECL Substrate (Biorad) and recorded by an Advanced Fluorescence Imager (INTAS, Germany).
(In general: In western blotting, separated proteins are transferred to a membrane and probed.)

A further assay concerns Gumbus cells. Kind of assay: Western blot analysis of PARP cleavage. Type of assay: cell-based, human. The note with it: multiple IC50 concentrations, 6 h. As for the experimental part: as §1, §2

In the case of `CCOc1c2c(c3cnc4cc(C)c(C)cc4n13)SSSSS2` [Compound 4], at bovine erythrocyte GPx (23 °C, n>3, 0.25 mM GSH, read-out: Enzyme inhibition IC50 (CI 95 %)), the IC50 stood at 2440 nM. On bovine erythrocyte GPx (ratio of IC50 values), the “potency at inhibiting GPx1 compared to MSA” value is “twice as potent as MSA”. The PARP cleavage result in the assay on HL-60 cells and with Gumbus cells was “cleavage of PARP was detectable” in each case.
